Target: AMPK
Assay: AMPK activation, enzyme-linked immunosorbent assay
Assay type: biochemical
Conditions: Table 8, compounds of Table 1
Protocol: Compounds of Table 1 were assayed for their ability to activate AMPK using an enzyme-linked immunosorbent assay.
Compounds of Table 2 were assayed for their ability to activate AMPK using an enzyme-linked immunosorbent assay.
Compounds of Table 3 were assayed for their ability to activate AMPK using an enzyme-linked immunosorbent assay.
Compounds of Table 4 were assayed for their ability to activate AMPK using an enzyme-linked immunosorbent assay.
Compounds of Table 5 were assayed for their ability to activate AMPK using an enzyme-linked immunosorbent assay.
Compounds of Table 6 were assayed for their ability to activate AMPK using an enzyme-linked immunosorbent assay.
Compounds of Table 7 were assayed for their ability to activate AMPK using an enzyme-linked immunosorbent assay.

| SMILES | EC50 |
| --- | --- |
| COC(=O)c1ccc(CN2CCC(NC(=O)c3ccc(OC4CCN(c5ccc(C(F)(F)F)cc5)CC4)nc3)CC2)cc1 [Compound 1-45, methyl 4-((4-(6-(1-(4-(trifluoromethyl)phenyl)piperidin-4-yloxy)nicotinamido)piperidin-1-yl)methyl)benzoate] | > 10000 nM |
| O=C(O)c1ccc(CN2CCC(NC(=O)c3ccc(OC4CCN(c5ccc(C(F)(F)F)cc5)CC4)nc3)CC2)cc1 [Compound 1-46, 4-((4-(6-(1-(4-(trifluoromethyl)phenyl)piperidin-4-yloxy)nicotinamido)piperidin-1-yl)methyl) benzoic acid] | 1000 to 5000 nM |
| O=C(NC1CCN(Cc2cn(C(c3ccccc3)(c3ccccc3)c3ccccc3)cn2)CC1)c1ccc(OC2CCN(c3ccc(C(F)(F)F)cc3)CC2)cn1 [Compound 1-47, 5-(1-(4-(trifluoromethyl)phenyl)piperidin-4-yloxy)-N-(1-((1-trityl-1H-imidazol-4-yl)methyl)piperidin-4-yl)picolinamide] | 1000 to 5000 nM |
| O=C(NC1CCN(Cc2c[nH]cn2)CC1)c1ccc(OC2CCN(c3ccc(C(F)(F)F)cc3)CC2)cn1 [Compound 1-48, N-(1-((1H-imidazol-4-yl)methyl)piperidin-4-yl)-5-(1-(4-(trifluoromethyl)phenyl)piperidin-4-yloxy)picolinamide] | 1000 to 5000 nM |
| CC(C)(C)OC(=O)NCCCNC(=O)c1ccc(OC2CCN(c3ccc(C(F)(F)F)cc3)CC2)cn1 [Compound 1-49, tert-butyl 3-(5-(1-(4-(trifluoromethyl)phenyl)piperidin-4-yloxy)picolinamido) propylcarbamate] | < 100 nM |
| O=C(NCCCNCc1ccncc1)c1ccc(OC2CCN(c3ccc(C(F)(F)F)cc3)CC2)cn1 [Compound 1-50, N-(3-(pyridin-4-ylmethylamino)propyl)-5-(1-(4-(trifluoromethyl)phenyl)piperidin-4-yloxy)picolinamide] | 1000 to 5000 nM |
| O=S(=O)(NC1CCN(Cc2ccncc2)CC1)c1ccc(OC2CCN(c3ccc(C(F)(F)F)cc3)CC2)nc1 [Compound 1-51, N-(1-(pyridin-4-ylmethyl)piperidin-4-yl)-6-(1-(4-(trifluoromethyl)phenyl)piperidin-4-yloxy)pyridine-3-sulfonamide] | 100 to 500 nM |
| N#Cc1ccc(N2CCC(Oc3ccc(S(=O)(=O)NC4CCN(Cc5ccncc5)CC4)cn3)CC2)cc1 [Compound 1-52, N-(1-(pyridin-4-ylmethyl)piperidin-4-yl)-6-(1-(4-cyanophenyl)piperidin-4-yloxy)pyridine-3-sulfonamide] | 100 to 500 nM |
| N#Cc1ccc(CN2CCC(Oc3ccc(S(=O)(=O)NC4CCN(Cc5ccncc5)CC4)cn3)CC2)cc1 [Compound 1-53, 6-(1-(4-cyanobenzyl)piperidin-4-yloxy)-N-(1-(pyridin-4-ylmethyl)piperidin-4-yl)pyridine-3-sulfonamide] | 100 to 500 nM |
| CC(C)(C)OC(=O)N1CCC(NS(=O)(=O)c2ccc(OC3CCN(c4ccc(C(F)(F)F)cc4)CC3)nc2)CC1 [Compound 1-54, tert-butyl 4-(6-(1-(4-(trifluoromethyl)phenyl)piperidin-4-yloxy)pyridine-3-sulfonamido) piperidine-1-carboxylate] | 1000 to 5000 nM |
| O=S(=O)(NC1CCNCC1)c1ccc(OC2CCN(c3ccc(C(F)(F)F)cc3)CC2)nc1 [Compound 1-55, N-(piperidin-4-yl)-6-(1-(4-(trifluoromethyl)phenyl)piperidin-4-yloxy)pyridine-3-sulfonamide] | 1000 to 5000 nM |
| N#Cc1ccc(CN2CCC(NS(=O)(=O)c3ccc(OC4CCN(c5ccc(C(F)(F)F)cc5)CC4)nc3)CC2)cc1 [Compound 1-56, N-(1-(4-cyanobenzyl)piperidin-4-yl)-6-(1-(4-(trifluoromethyl)phenyl)piperidin-4-yloxy)pyridine-3-sulfonamide] | 5000 to 10000 nM |
| N#Cc1cccc(CN2CCC(NS(=O)(=O)c3ccc(OC4CCN(c5ccc(C(F)(F)F)cc5)CC4)nc3)CC2)c1 [Compound 1-57, N-(1-(3-cyanobenzyl)piperidin-4-yl)-6-(1-(4-(trifluoromethyl)phenyl)piperidin-4-yloxy)pyridine-3-sulfonamide] | 500 to 1000 nM |
| O=S(=O)(NC1CCN(Cc2ccc(C(F)(F)F)cc2)CC1)c1ccc(OC2CCN(c3ccc(C(F)(F)F)cc3)CC2)nc1 [Compound 1-58, N-(1-(4-(trifluoromethyl)benzyl)piperidin-4-yl)-6-(1-(4-(trifluoromethyl)phenyl)piperidin-4-yloxy)pyridine-3-sulfonamide] | < 100 nM |
| O=S(=O)(NC1CCN(Cc2cccc(C(F)(F)F)c2)CC1)c1ccc(OC2CCN(c3ccc(C(F)(F)F)cc3)CC2)nc1 [Compound 1-59, N-(1-(3-(trifluoromethyl)benzyl)piperidin-4-yl)-6-(1-(4-(trifluoromethyl)phenyl)piperidin-4-yloxy)pyridine-3-sulfonamide] | 100 to 500 nM |
| O=C(c1ccc(F)cc1)N1CCC(NS(=O)(=O)c2ccc(OC3CCN(c4ccc(C(F)(F)F)cc4)CC3)nc2)CC1 [Compound 1-60, N-(1-(4-fluorobenzoyl)piperidin-4-yl)-6-(1-(4-(trifluoromethyl)phenyl)piperidin-4-yloxy)pyridine-3-sulfonamide] | > 10000 nM |
| Cc1c(C(=O)NC2CCN(C(=O)OC(C)(C)C)CC2)oc2cc(OC3CCN(c4ccc(C(F)(F)F)cc4)CC3)ccc12 [Compound 1-61, tert-butyl 4-(3-methyl-6-(1-(4-(trifluoromethyl)phenyl)piperidin-4-yloxy)benzofuran-2-carboxamido) piperidine-1-carboxylate] | 100 to 500 nM |
| Cc1c(C(=O)NC2CCNCC2)oc2cc(OC3CCN(c4ccc(C(F)(F)F)cc4)CC3)ccc12 [Compound 1-62, 3-methyl-N-(piperidin-4-yl)-6-(1-(4-(trifluoromethyl)phenyl)piperidin-4-yloxy)benzofuran-2-carboxamide] | 5000 to 10000 nM |
| Cc1c(C(=O)NC2CCN(Cc3ccc(F)cc3)CC2)oc2cc(OC3CCN(c4ccc(C(F)(F)F)cc4)CC3)ccc12 [Compound 1-63, N-(1-(4-fluorobenzyl)piperidin-4-yl)-3-methyl-6-(1-(4-(trifluoromethyl)phenyl)piperidin-4-yloxy)benzofuran-2-carboxamide] | < 100 nM |
| Cc1c(C(=O)NC2CCN(Cc3ccc(C#N)cc3)CC2)oc2cc(OC3CCN(c4ccc(C(F)(F)F)cc4)CC3)ccc12 [Compound 1-64, N-(1-(4-cyanobenzyl)piperidin-4-yl)-3-methyl-6-(1-(4-(trifluoromethyl)phenyl)piperidin-4-yloxy)benzofuran-2-carboxamide] | < 100 nM |
| Cc1c(C(=O)NC2CCN(Cc3ccncc3)CC2)oc2cc(OC3CCN(c4ccc(C(F)(F)F)cc4)CC3)ccc12 [Compound 1-65, 3-methyl-N-(1-(pyridin-4-ylmethyl)piperidin-4-yl)-6-(1-(4-(trifluoromethyl)phenyl)piperidin-4-yloxy)benzofuran-2-carboxamide] | < 100 nM |
| Cc1c(C(=O)NC2CCN(Cc3cccc(C#N)c3)CC2)oc2cc(OC3CCN(c4ccc(C(F)(F)F)cc4)CC3)ccc12 [Compound 1-66, N-(1-(3-cyanobenzyl)piperidin-4-yl)-3-methyl-6-(1-(4-(trifluoromethyl)phenyl)piperidin-4-yloxy)benzofuran-2-carboxamide] | < 100 nM |
| Cc1c(C(=O)NC2CCN(Cc3ccccc3C#N)CC2)oc2cc(OC3CCN(c4ccc(C(F)(F)F)cc4)CC3)ccc12 [Compound 1-67, N-(1-(2-cyanobenzyl)piperidin-4-yl)-3-methyl-6-(1-(4-(trifluoromethyl)phenyl)piperidin-4-yloxy)benzofuran-2-carboxamide] | < 100 nM |
| Cc1c(C(=O)NC2CCN(Cc3ccccn3)CC2)oc2cc(OC3CCN(c4ccc(C(F)(F)F)cc4)CC3)ccc12 [Compound 1-68, 3-methyl-N-(1-(pyridin-2-ylmethyl)piperidin-4-yl)-6-(1-(4-(trifluoromethyl)phenyl)piperidin-4-yloxy)benzofuran-2-carboxamide] | < 100 nM |
| Cc1c(C(=O)NC2CCN(Cc3cccnc3)CC2)oc2cc(OC3CCN(c4ccc(C(F)(F)F)cc4)CC3)ccc12 [Compound 1-69, 3-methyl-N-(1-(pyridin-3-ylmethyl)piperidin-4-yl)-6-(1-(4-(trifluoromethyl)phenyl)piperidin-4-yloxy)benzofuran-2-carboxamide] | < 100 nM |
| N#Cc1ccc(CN2CCC(Oc3ccc4oc(C(=O)NC5CCN(Cc6ccccc6)CC5)cc4c3)CC2)cc1 [Compound 1-70, N-(1-benzylpiperidin-4-yl)-5-(1-(4-cyanobenzyl)piperidin-4-yloxy)benzofuran-2-carboxamide] | < 100 nM |
| N#Cc1ccc(N2CCC(Oc3ccc4oc(C(=O)NC5CCN(Cc6ccccc6)CC5)cc4c3)CC2)cc1 [Compound 1-71, N-(1-benzylpiperidin-4-yl)-5-(1-(4-cyanophenyl)piperidin-4-yloxy)benzofuran-2-carboxamide] | < 100 nM |
| O=C(NC1CCN(Cc2ccccc2)CC1)c1cc2cc(OC3CCN(Cc4ccc(Cl)cc4)CC3)ccc2o1 [Compound 1-72, N-(1-benzylpiperidin-4-yl)-5-(1-(4-chlorobenzyl)piperidin-4-yloxy)benzofuran-2-carboxamide] | 100 to 500 nM |
| O=C(NC1CCN(Cc2ccccc2)CC1)c1cc2cc(OC3CCN(Cc4cccc(C(F)(F)F)c4)CC3)ccc2o1 [Compound 1-73, N-(1-benzylpiperidin-4-yl)-5-(1-(3-(trifluoromethyl)benzyl)piperidin-4-yloxy)benzofuran-2-carboxamide] | 500 to 1000 nM |
| O=C(NC1CCN(Cc2ccccc2)CC1)c1cc2cc(OC3CCN(Cc4ccc(F)c(F)c4)CC3)ccc2o1 [Compound 1-74, N-(1-benzylpiperidin-4-yl)-5-(1-(3,4-difluorobenzyl)piperidin-4-yloxy)benzofuran-2-carboxamide] | 100 to 500 nM |
